Reference: ChEMBL document CHEMBL5053490, “Fusaricide is a Novel Iron Chelator that Induces Apoptosis through Activating Caspase-3” (J Nat Prod, 2021)
The source made the active and inactive calls. No cut-off for these calls is given here.

Key:
NCI-H226 [1] = assay: Cytotoxicity against human NCI-H226 cells assessed as cell viability rescue at 10 uM incubated for 24 hrs in presence of Fecl3 by CCK8 assay; format: functional, cell-based
NCI-H460 [2] = assay: Cytotoxicity against human NCI-H460 cells assessed as reduction in cell viability at 5 uM incubated for 48 hrs by CCK8 assay; format: functional, cell-based
MRC5 = assay: Cytotoxicity against human MRC5 cells up to 100 uM assessed as reduction in cell viability incubated for 48 hrs by CCK8 assay; format: cell-based; conditions: mrc5, 48 h
HEK-293T = assay: Cytotoxicity against human HEK293T cells up to 100 uM assessed as reduction in cell viability incubated for 48 hrs by CCK8 assay; format: cell-based
NCI-H460 [3] = assay: Cytotoxicity against human NCI-H460 cells assessed as reduction in cell viability incubated for 24 hrs by CCK8 assay; format: functional, cell-based; conditions: NCI-H460, 24 h
NCI-H460 [4] = assay: Cytotoxicity against human NCI-H460 cells assessed as reduction in cell viability incubated for 48 hrs by CCK8 assay; format: functional, cell-based; conditions: NCI-H460, 48 h
NCI-H460 [5] = assay: Induction of apoptosis in human NCI-H460 cells assessed as viable cells at 10 uM incubated for 12 hrs by AnnexinV-FITC/propidium iodide staining based flow cytometry (reference value: 90.4%); format: functional; conditions: read-out: Activity
NCI-H460 [6] = assay: Induction of apoptosis in human NCI-H460 cells assessed as early apoptotic cells at 10 uM incubated for 12 hrs by AnnexinV-FITC/propidium iodide staining based flow cytometry (reference value: 0.74%); format: functional
NCI-H460 [7] = assay: Induction of apoptosis in human NCI-H460 cells assessed as late apoptotic cells at 10 uM incubated for 12 hrs by AnnexinV-FITC/propidium iodide staining based flow cytometry (reference value: 7.54%); format: functional
NCI-H460 [8] = assay: Induction of apoptosis in human NCI-H460 cells assessed as necrotic cells at 10 uM incubated for 12 hrs by AnnexinV-FITC/propidium iodide staining based flow cytometry (reference value: 1.28%); format: functional
NCI-H460 [9] = assay: Induction of apoptosis in human NCI-H460 cells assessed as viable cells at 10 uM incubated for 24 hrs by AnnexinV-FITC/propidium iodide staining based flow cytometry (reference value: 90.4%); format: functional; conditions: read-out: Activity
NCI-H460 [10] = assay: Induction of apoptosis in human NCI-H460 cells assessed as early apoptotic cells at 10 uM incubated for 24 hrs by AnnexinV-FITC/propidium iodide staining based flow cytometry (reference value: 0.74%); format: functional
NCI-H460 [11] = assay: Induction of apoptosis in human NCI-H460 cells assessed as late apoptotic cells at 10 uM incubated for 24 hrs by AnnexinV-FITC/propidium iodide staining based flow cytometry (reference value: 7.54%); format: functional
NCI-H460 [12] = assay: Induction of apoptosis in human NCI-H460 cells assessed as necrotic cells at 10 uM incubated for 24 hrs by AnnexinV-FITC/propidium iodide staining based flow cytometry (reference value: 1.28%); format: functional
NCI-H460 [13] = assay: Induction of apoptosis in human NCI-H460 cells assessed as viable cells at 10 uM incubated for 36 hrs by AnnexinV-FITC/propidium iodide staining based flow cytometry (reference value: 90.4%); format: functional; conditions: read-out: Activity
NCI-H460 [14] = assay: Induction of apoptosis in human NCI-H460 cells assessed as early apoptotic cells at 10 uM incubated for 36 hrs by AnnexinV-FITC/propidium iodide staining based flow cytometry (reference value: 0.74%); format: functional
NCI-H460 [15] = assay: Induction of apoptosis in human NCI-H460 cells assessed as late apoptotic cells at 10 uM incubated for 36 hrs by AnnexinV-FITC/propidium iodide staining based flow cytometry (reference value: 7.54%); format: functional
NCI-H460 [16] = assay: Induction of apoptosis in human NCI-H460 cells assessed as necrotic cells at 10 uM incubated for 36 hrs by AnnexinV-FITC/propidium iodide staining based flow cytometry (reference value: 1.28%); format: functional
NCI-H460 [17] = assay: Induction of apoptosis in human NCI-H460 cells assessed as viable cells at 10 uM incubated for 48 hrs by AnnexinV-FITC/propidium iodide staining based flow cytometry (reference value: 90.4%); format: functional; conditions: read-out: Activity
NCI-H460 [18] = assay: Induction of apoptosis in human NCI-H460 cells assessed as early apoptotic cells at 10 uM incubated for 48 hrs by AnnexinV-FITC/propidium iodide staining based flow cytometry (reference value: 0.74%); format: functional
NCI-H460 [19] = assay: Induction of apoptosis in human NCI-H460 cells assessed as late apoptotic cells at 10 uM incubated for 48 hrs by AnnexinV-FITC/propidium iodide staining based flow cytometry (reference value: 7.54%); format: functional
NCI-H460 [20] = assay: Induction of apoptosis in human NCI-H460 cells assessed as necrotic cells at 10 uM incubated for 48 hrs by AnnexinV-FITC/propidium iodide staining based flow cytometry (reference value: 1.28%); format: functional
NCI-H460 [21] = assay: Induction of apoptosis in human NCI-H460 cells assessed as decrease in PARP measured upto 48 hrs by Western blot analysis; format: functional, cell-based; conditions: TDE = time-dependent effect
NCI-H460 [22] = assay: Induction of apoptosis in human NCI-H460 cells assessed as increase in cleaved PARP measured upto 48 hrs by Western blot analysis; format: functional, cell-based; conditions: TDE = time-dependent effect
NCI-H460 [23] = assay: Induction of apoptosis in human NCI-H460 cells assessed as increase in Bax at 10 uM measured by Western blot analysis; format: functional, cell-based
NCI-H460 [24] = assay: Induction of apoptosis in human NCI-H460 cells assessed as increase in Caspase 3 activity at 10 uM measured by Western blot analysis; format: functional, cell-based; conditions: time <= 48.0 hrs, TDE = time-dependent effect
NCI-H460 [25] = assay: Induction of morphological changes in human NCI-H460 cells assessed as roughness of cell membrane at 10 uM measured after 24 hrs by Hoechst 33342 staining based assay; format: functional
NCI-H460 [26] = assay: Induction of cell cycle arrest in human NCI-H460 cells assessed as accumulation at sub G0/G1 phase at 10 uM after 12 hrs by flow cytometric analysis (reference value: 64.5%); format: functional
NCI-H460 [27] = assay: Induction of cell cycle arrest in human NCI-H460 cells assessed as accumulation at sub S phase at 10 uM after 12 hrs by flow cytometric analysis (reference value: 25.7%); format: functional
NCI-H460 [28] = assay: Induction of cell cycle arrest in human NCI-H460 cells assessed as accumulation at sub G2/M phase at 10 uM after 12 hrs by flow cytometric analysis (reference value: 9.8%); format: functional
NCI-H460 [29] = assay: Induction of cell cycle arrest in human NCI-H460 cells assessed as accumulation at sub G0/G1 phase at 10 uM after 24 hrs by flow cytometric analysis (reference value: 64.5%); format: functional
NCI-H460 [30] = assay: Induction of cell cycle arrest in human NCI-H460 cells assessed as accumulation at […] at 10 uM after 24 hrs by flow cytometric analysis (reference value: 25.7%); format: functional
NCI-H460 [31] = assay: Induction of cell cycle arrest in human NCI-H460 cells assessed as accumulation at sub G2/M phase at 10 uM after 24 hrs by flow cytometric analysis (reference value: 9.8%); format: functional
NCI-H460 [32] = assay: Induction of cell cycle arrest in human NCI-H460 cells assessed as decrease in cyclin D1 expression at 10 uM after 24 hrs by Western blot analysis; format: functional, cell-based
NCI-H460 [33] = assay: Induction of cell cycle arrest in human NCI-H460 cells assessed as increase in activated gammaH2AX expression at 10 uM after 24 hrs by Western blot analysis; format: functional, cell-based
NCI-H460 [34] = assay: Induction of cell cycle arrest in human NCI-H460 cells assessed as increase in p-53 expression at 10 uM after 24 hrs by Western blot analysis; format: functional, cell-based
NCI-H460 [35] = assay: Effect on labile iron pool in human NCI-H460 cells assessed as […] at 10 uM by calcein-AM staining based flow cytometry analysis relative to control; format: functional, cell-based
NCI-H460 [36] = assay: Upregulation of TfR1 level in human NCI-H460 cells at 10 uM by Western blot analysis; format: functional, cell-based
NCI-H460 [37] = assay: Downregulation of FTH level in human NCI-H460 cells at 10 uM by Western blot analysis; format: functional, cell-based
NCI-H460 [38] = assay: Induction of morphological changes in human NCI-H460 cells assessed as chromatin condensation at 10 uM measured after 24 hrs by Hoechst 33342 staining based assay; format: functional, cell-based
NCI-H460 [39] = assay: Cytotoxicity against human NCI-H460 cells assessed as cell viability rescue at 10 uM incubated for 24 hrs in presence of Fecl3 by CCK8 assay; format: functional, cell-based
NCI-H1299 [40] = assay: Cytotoxicity against human NCI-H1299 cells assessed as cell viability rescue at 10 uM incubated for 24 hrs in presence of Fecl3 by CCK8 assay; format: functional, cell-based
NCI-H460 [41] = assay: Reversal of cell death in human NCI-H460 cells at up to 40 uM measured after 24 hrs by in presence of FeCl3; format: functional, cell-based
NCI-H226 [42] = assay: Reversal of cell death in human NCI-H226 cells at up to 40 uM measured after 24 hrs by in presence of FeCl3; format: functional, cell-based
NCI-H1299 [43] = assay: Reversal of cell death in human NCI-H1299 cells at up to 40 uM measured after 24 hrs by in presence of FeCl3; format: functional, cell-based
NCI-H460 [44] = assay: Induction of apoptosis in human NCI-H460 cells assessed as viable cells at 10 uM incubated for 24 hrs in presence of FeCl3 by AnnexinV-FITC/propidium iodide staining based flow cytometry (reference value: 89.5%); format: functional; conditions: read-out: Activity
NCI-H460 [45] = assay: Induction of apoptosis in human NCI-H460 cells assessed as early apoptotic cells at 10 uM incubated for 24 hrs in presence of FeCl3 by AnnexinV-FITC/propidium iodide staining based flow cytometry (reference value: 1.69%); format: functional
NCI-H460 [46] = assay: Induction of apoptosis in human NCI-H460 cells assessed as late apoptotic cells at 10 uM incubated for 24 hrs in presence of FeCl3 by AnnexinV-FITC/propidium iodide staining based flow cytometry (reference value: 6.09%); format: functional
NCI-H460 [47] = assay: Induction of apoptosis in human NCI-H460 cells assessed as necrotic cells at 10 uM incubated for 24 hrs in presence of FeCl3 by AnnexinV-FITC/propidium iodide staining based flow cytometry (reference value: 2.4%); format: functional

## CC[C@H]1Oc2ccn(O)c(=O)c2[C@H]2[C@H](C)C[C@H](C)C[C@]12C
NCI-H226 [1]
  Activity: inactive
NCI-H460 [2]
  Activity: Dose-dependent effect
MRC5
  Activity: Toxic
HEK-293T
  Activity: Toxic
NCI-H460 [3]
  IC50: 4.94 µM
NCI-H460 [4]
  IC50: 1.76 µM
NCI-H460 [5]
  viability at 10 µM: 86.3%
NCI-H460 [6]
  Activity: 2.93%
NCI-H460 [7]
  Activity: 9.5%
NCI-H460 [8]
  Activity: 1.7%
NCI-H460 [9]
  viability at 10 µM: 75.6%
NCI-H460 [10]
  Activity: 6.27%
NCI-H460 [11]
  Activity: 15.7%
NCI-H460 [12]
  Activity: 2.44%
NCI-H460 [13]
  viability at 10 µM: 56.1%
NCI-H460 [14]
  Activity: 4.29%
NCI-H460 [15]
  Activity: 35.7%
NCI-H460 [16]
  Activity: 3.92%
NCI-H460 [17]
  viability at 10 µM: 34.2%
NCI-H460 [18]
  Activity: 4.51%
NCI-H460 [19]
  Activity: 57.9%
NCI-H460 [20]
  Activity: 3.4%
NCI-H460 [21]
  Activity: Tde
NCI-H460 [22]
  Activity: Tde
NCI-H460 [23]
  Activity: Active
NCI-H460 [24]
  Activity: Tde
NCI-H460 [25]
  Activity: Active
NCI-H460 [26]
  Activity: 71.8%
NCI-H460 [27]
  Activity: 25.9%
NCI-H460 [28]
  Activity: 2.2%
NCI-H460 [29]
  Activity: 73.9%
NCI-H460 [30]
  Activity: 26%
NCI-H460 [31]
  Activity: 0.8%
NCI-H460 [32]
  Activity: Active
NCI-H460 [33]
  Activity: Active
NCI-H460 [34]
  Activity: Active
NCI-H460 [35]
  Activity: Active
NCI-H460 [36]
  Activity: Active
NCI-H460 [37]
  Activity: Active
NCI-H460 [38]
  Activity: Active
NCI-H460 [39]
  Activity: inactive
NCI-H1299 [40]
  Activity: inactive
NCI-H460 [41]
  Activity: Active
NCI-H226 [42]
  Activity: Active
NCI-H1299 [43]
  Activity: Active
NCI-H460 [44]
  viability at 10 µM: 93.8%
NCI-H460 [45]
  Activity: 0.75%
NCI-H460 [46]
  Activity: 4.43%
NCI-H460 [47]
  Activity: 1.01%

## CC(=O)O[C@H]1C(=O)[C@@]2(C)[C@H]([C@H](OC(=O)c3ccccc3)[C@]3(O)C[C@H](OC(=O)[C@H](O)[C@@H](NC(=O)c4ccccc4)c4ccccc4)C(C)=C1C3(C)C)[C@]1(OC(C)=O)CO[C@@H]1C[C@@H]2O
NCI-H226 [1]
  Activity: inactive
NCI-H460 [39]
  Activity: inactive
NCI-H1299 [40]
  Activity: inactive

## O=C(O)c1ccc(-n2nc(-c3ccccc3O)nc2-c2ccccc2O)cc1 [DEFERASIROX]
NCI-H460 [3]
  IC50: 98.4 µM
NCI-H460 [4]
  IC50: 20.4 µM
